Among the data in patent publication US12098139B2, “Chemokine receptor modulators and uses thereof” (RAPT Therapeutics, Inc., priority 2018, dated 2024) are IC50 values, retold here.

pIC50: −log10 of the molar value. Where only a bound is given, the exact number is not on record here.

The first assay concerns the target T1, hCCR4 (Chem5-hCCR4 cells) (Homo sapiens, UniProt P51679).
T1 sequence (P51679 1-360): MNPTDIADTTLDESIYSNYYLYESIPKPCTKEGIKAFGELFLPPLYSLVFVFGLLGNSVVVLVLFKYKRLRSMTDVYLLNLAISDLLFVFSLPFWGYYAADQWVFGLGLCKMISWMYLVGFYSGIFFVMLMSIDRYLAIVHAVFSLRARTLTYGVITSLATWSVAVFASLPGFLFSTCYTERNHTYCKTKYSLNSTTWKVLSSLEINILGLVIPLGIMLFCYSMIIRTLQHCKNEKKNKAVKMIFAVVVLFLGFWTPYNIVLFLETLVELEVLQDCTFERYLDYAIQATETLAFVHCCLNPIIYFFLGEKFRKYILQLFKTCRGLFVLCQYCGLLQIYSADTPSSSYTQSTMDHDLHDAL
The assay can be described thus: Calcium flux assay (CCL22-stimulated, FLIPR Calcium 6 dye). It counts as cell-based. As to conditions: Table 4, CCL22 1.5 nM, read-out: Potency (IC50). An outline of the steps: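 Chem5-hCCR4 cells were serum-starved 2 h and loaded 2 h with Calcium 6 dye plus 2.5 mM probenecid. They were then preincubated 1 h at 37 °C with compound (0.5% DMSO). CCL22 was added from a 7.5 nM working solution (5× EC80), and ΔF/Fmin at 485/525 nm was fitted 4-parameter for IC50.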
For orientation: Calcium assays in cells follow changes in intracellular calcium, usually with a dye or a luminescent sensor.
Usually pIC50 stands for the IC50 on a negative log10 scale, so that one unit is a factor of ten. As to `C[C@@H](Nc1nc(N2CC([C@H]3CCCN(C4CC(C)(C(=O)O)C4)C3)C2)cnc1C#N)c1ccc(Cl)cc1Cl` (stereo partly drawn) [Example 51, 3-[(1S,3R)-3-[1-[5-cyano-6-[[(1R)-1-(2,4-dichlorophenyl)ethyl]amino]pyrazin-2-yl]azetidin-3-yl]-1-piperidyl]-1-methyl-cyclobutanecarboxylic acid; 2,2,2-trifluoroacetic acid], the pIC50 is < 6.30.
Consider `C[C@@H](Nc1cnc(C#N)c(N2CC([C@H]3CCCN(CCC(=O)O)C3)C2)n1)c1ccc(Cl)cc1Cl` [Example 53, 3-(3-(1-(3-cyano-6-(((R)-1-(2,4-dichlorophenyl)ethyl)amino)pyrazin-2-yl)azetidin-3-yl)piperidin-1-yl)propanoic acid], for which the pIC50 was < 6.30.

Staying with this assay, now noted: Table 5, CCL22 1.5 nM, read-out: Potency (IC50).
Regarding `C[C@@H](Nc1nc(N2CC([C@H]3CCCN(CC(=O)N4CCCC4)C3)C2)ncc1Cl)c1ccc(Cl)cc1Cl` [Example 56, 2-[(3R)-3-[1-[5-chloro-4-[[(1R)-1-(2,4-dichlorophenyl)ethyl]amino]pyrimidin-2-yl]azetidin-3-yl]-1-piperidyl]-1-pyrrolidin-1-yl-ethanone; 2,2,2-trifluoroacetic acid], the pIC50 is 6.30 to 7.00.
As to `CC(O)c1cnc(N2CC([C@H]3CCCN([C@H]4C[C@](C)(C(=O)O)C4)C3)C2)nc1N[C@H](C)c1ccc(Cl)cc1Cl` (stereo partly drawn) [Example 58, 3-[(3R)-3-[1-[4-[[(1R)-1-(2,4-dichlorophenyl)ethyl]amino]-5-(1-hydroxyethyl)pyrimidin-2-yl]azetidin-3-yl]-1-piperidyl]-1-methyl-cyclobutanecarboxylic acid; 2,2,2-trifluoroacetic acid], the pIC50 is > 7.00.
For the compound `C[C@@H](Nc1cc(C(F)(F)F)nc(N2CC([C@H]3CCCN([C@H]4C[C@](C)(C(=O)O)C4)C3)C2)n1)c1ccc(Cl)cc1Cl` [Example 59, 3-[(1R)-3-[1-[4-[[(1R)-1-(2,4-dichlorophenyl)ethyl]amino]-6-(trifluoromethyl)pyrimidin-2-yl]azetidin-3-yl]-1-piperidyl]-1-methyl-cyclobutanecarboxylic acid], the pIC50 was 6.30 to 7.00.
With `C[C@@H](Nc1nc(N2CC([C@H]3CCCN(CCO)C3)C2)nc2sccc12)c1ccc(Cl)cc1Cl` [Example 61, 2-[(3R)-3-[1-[4-[[(1R)-1-(2,4-dichlorophenyl)ethyl]amino]thieno[2,3-d]pyrimidin-2-yl]azetidin-3-yl]-1-piperidyl]ethanol; 2,2,2-trifluoroacetic acid], the pIC50 is > 7.00.
Still for that read-out and setting: the result for `C[C@@H](Nc1nc(N2CC([C@H]3CCCN(CCO)C3)C2)nc2ccsc12)c1ccc(Cl)cc1Cl` [Example 62, 2-[(3R)-3-[1-[4-[[(1R)-1-(2,4-dichlorophenyl)ethyl]amino]thieno[3,2-d]pyrimidin-2-yl]azetidin-3-yl]-1-piperidyl]ethanol; 2,2,2-trifluoroacetic acid] reads > 7.00.
On the same count and under the same terms, the result for `CC(Nc1nc(N2CC([C@H]3CCCN(CCO)C3)C2)ncc1Cl)c1ccc(Cl)cc1F` (stereo partly drawn) [Example 63, 2-[(3R)-3-[1-[5-chloro-4-[1-(4-chloro-2-fluoro-phenyl)ethylamino]pyrimidin-2-yl]azetidin-3-yl]-1-piperidyl]ethanol; 2,2,2-trifluoroacetic acid] reads > 7.00.
On the same count and under the same terms, the result for `C[C@@H](Nc1nc(N2CC([C@H]3CCCN([C@H]4C[C@](C)(C(=O)O)C4)C3)C2)nc2ccc(F)cc12)c1ccc(Cl)cc1Cl` [Example 65, 3-[(1R,3R)-3-[1-[4-[[(1R)-1-(2,4-dichlorophenyl)ethyl]amino]-6-fluoro-quinazolin-2-yl]azetidin-3-yl]-1-piperidyl]-1-methyl-cyclobutanecarboxylic acid; 2,2,2-trifluoroacetic acid] reads > 7.00.
